The nature of experiment [1]: Binding affinity to RBC membrane receptor in human RBCs assessed as dissociation constant by gamma counter.
For experiment [2], the species on record is Homo sapiens. Nature of the experiment: Binding affinity to RBC membrane receptor in 150 uU/mL neuraminidase pretreated human RBCs relative to untreated RBCs.
Experiment [3] is filed under the species Homo sapiens. Nature of the experiment: Binding affinity to RBC membrane receptor in 1 mg/mL chymotrypsin pretreated human RBCs relative to untreated RBCs.
Experiment [4] is filed under the species Homo sapiens. The experiment can be described thus: Binding affinity to RBC membrane receptor in human RBCs assessed as specific binding activity measured as ratio of specifically bound peptide/added peptide by gamma counter.
Experiment [5] relates to Plasmodium falciparum. Nature of the experiment: Antiplasmodial activity against Plasmodium falciparum FCB2 assessed as inhibition of merozoite invasion of human RBCs at 200 uM after 18 hrs using hydroethidine staining by flow cytometry. The experiment is classed as functional. Conditions: FCB2, 18 h. Background: Flow cytometry measures light scatter and fluorescence of single cells or particles in a stream.

The species entered for experiment [6] is Homo sapiens. The experiment can be described thus: Binding affinity to RBC membrane receptor in 1 mg/mL trypsin pretreated human RBCs relative to untreated RBCs.
For experiment [7], the system named is Plasmodium falciparum. The experiment can be described thus: Antiplasmodial activity against Plasmodium falciparum FCB2 assessed as inhibition of merozoite invasion of human RBCs at 100 uM after 18 hrs using hydroethidine staining by flow cytometry. In kind it is functional. As to conditions: FCB2, 18 h.
The species named for experiment [8] is Homo sapiens. The experiment can be described thus: Binding affinity of radio labeled compound to 78 kDa RBC membrane receptor in human RBCs cross-linked with bis-(sulfosuccinimidyl)suberate by autoradiography using SDS-PAGE.
For experiment [9], the species on record is Homo sapiens. The experiment can be described thus: Binding affinity of radio labeled compound to 47 kDa RBC membrane receptor in human RBCs cross-linked with bis-(sulfosuccinimidyl)suberate by autoradiography using SDS-PAGE.
The species named for experiment [10] is Homo sapiens. Nature of the experiment: Binding affinity of radio labeled compound to 170 kDa RBC membrane receptor in human RBCs cross-linked with bis-(sulfosuccinimidyl)suberate by autoradiography using SDS-PAGE.
For experiment [11], the species on record is Homo sapiens. Nature of the experiment: Binding affinity of radio labeled compound to 68 kDa RBC membrane receptor in human RBCs cross-linked with bis-(sulfosuccinimidyl)suberate by autoradiography using SDS-PAGE.
For experiment [12], the species on record is Homo sapiens. The experiment can be described thus: Binding affinity of radio labeled compound to 85 kDa RBC membrane receptor in human RBCs cross-linked with bis-(sulfosuccinimidyl)suberate by autoradiography using SDS-PAGE.
Experiment [13] relates to Plasmodium falciparum. Nature of the experiment: Antiplasmodial activity against Plasmodium falciparum FCB2 assessed as inhibition of merozoite invasion of human RBCs at 1.85 mg/mL after 18 hrs using hydroethidine staining by flow cytometry. In kind it is functional. Set-up: scale not given: the % may be the effect or the level left.
The test system of experiment [14] is Plasmodium falciparum. The experiment can be described thus: Antiplasmodial activity against Plasmodium falciparum FCB2 assessed as inhibition of merozoite invasion of human RBCs at 1.9 mg/mL after 18 hrs using hydroethidine staining by flow cytometry. The experiment is classed as functional. The arrangement: scale not given: the % may be the effect or the level left.

Calls of active or inactive are those of the source. The calls are words filed in the database; no cut-off is given here.

Regarding `CC[C@H](C)[C@H](NC(=O)[C@H](CCCCN)NC(=O)CNC(=O)CNC(=O)[C@H](Cc1ccc(O)cc1)NC(=O)[C@H](CC(=O)O)NC(=O)[C@H](CO)NC(=O)[C@H](CC(C)C)NC(=O)[C@@H](N)CCCNC(=N)N)C(=O)N[C@@H](CC(C)C)C(=O)N[C@H](C(=O)N[C@@H](CCCCN)C(=O)NCC(=O)N[C@H](C(=O)N[C@@H](CC(N)=O)C(=O)N[C@@H](C)C(=O)N[C@@H](CCC(N)=O)C(=O)N[C@@H](CC(N)=O)C(=O)N[C@H](C(=O)N[C@@H](CC(C)C)C(=O)O)[C@H](C)O)[C@@H](C)O)C(C)C`, the Kd in experiment [1] was found to be 900 nM. For the same compound, the Activity in the experiment filed under Homo sapiens [2] was 67%; in the experiment filed under Homo sapiens [3], 79%; in the experiment filed under Homo sapiens [4] it was greater than 2%; in the experiment filed under Homo sapiens [6], 11%. The inhibition at 200 µM in the experiment on Plasmodium falciparum [5] is 9%. The inhibition at 100 µM with Plasmodium falciparum [7] is 34%.

In the case of `CC(C)C[C@H](NC(=O)[C@H](CCCCN)NC(=O)[C@H](Cc1ccc(O)cc1)NC(=O)[C@H](CC(C)C)NC(=O)CNC(=O)[C@H](CC(=O)O)NC(=O)[C@H](CO)NC(=O)[C@H](CO)NC(=O)[C@H](Cc1ccc(O)cc1)NC(=O)[C@H](CCCCN)NC(=O)[C@H](CC(C)C)NC(=O)[C@H](Cc1cnc[nH]1)NC(=O)[C@H](CO)NC(=O)[C@H](CO)NC(=O)[C@@H]1CCCN1C(=O)[C@@H](NC(=O)[C@H](CCCCN)NC(=O)[C@H](CS)NC(=O)[C@@H](NC(=O)[C@@H](N)CCCCN)[C@H](C)O)C(C)C)C(=O)O`, the Kd in experiment [1] amounted to 250 nM. Besides, the Activity in the experiment filed under Homo sapiens [2] was 23%; in the experiment filed under Homo sapiens [3], 37%; in the experiment listed under Homo sapiens [4] it was greater than 2%; in the experiment listed under Homo sapiens [6], 55%. For the same compound, in the experiment with Plasmodium falciparum [5], the inhibition at 200 µM amounted to 13%. For the same compound, the inhibition at 100 µM in the experiment with Plasmodium falciparum [7] is 45%.

As for `CC[C@H](C)[C@H](NC(=O)[C@H](Cc1cnc[nH]1)NC(=O)[C@H](CC(N)=O)NC(=O)[C@H](CCCNC(=N)N)NC(=O)[C@@H](NC(=O)[C@@H](N)Cc1ccc(O)cc1)[C@@H](C)CC)C(=O)N[C@@H](CC(=O)O)C(=O)N[C@@H](CC(C)C)C(=O)N[C@@H](CC(=O)O)C(=O)N[C@@H](Cc1ccccc1)C(=O)N1CCC[C@H]1C(=O)N[C@@H](Cc1ccccc1)C(=O)N[C@@H](CC(=O)O)C(=O)N[C@H](C(=O)N[C@@H](CC(=O)O)C(=O)N[C@H](C(=O)N[C@H](C(=O)N[C@@H](CCCCN)C(=O)N[C@@H](CC(C)C)C(=O)N[C@@H](Cc1ccc(O)cc1)C(=O)O)C(C)C)[C@H](C)O)[C@H](C)O`, the Kd in experiment [1] is 800 nM. For the same compound, the Activity in the experiment filed under Homo sapiens [2] is 120%; in the experiment listed under Homo sapiens [3], 90%; in the experiment listed under Homo sapiens [4] it was greater than 2%; in the experiment listed under Homo sapiens [6] it was 29%. For the same compound, the outcome in the experiment listed under Homo sapiens [8], in the experiment filed under Homo sapiens [9], in the experiment filed under Homo sapiens [10], in the experiment listed under Homo sapiens [11] and in the experiment filed under Homo sapiens [12] was Active. Besides, in the experiment with Plasmodium falciparum [5], the inhibition at 200 µM was -3%. For the same compound, the inhibition at 100 µM in the experiment on Plasmodium falciparum [7] amounted to 76%.

Regarding `CC[C@H](C)[C@H](NC(=O)[C@H](CCCNC(=N)N)NC(=O)[C@H](CCC(=O)O)NC(=O)[C@H](Cc1cnc[nH]1)NC(=O)[C@@H](NC(=O)[C@H](CC(C)C)NC(=O)[C@H](Cc1c[nH]c2ccccc12)NC(=O)[C@H](CCCCN)NC(=O)[C@H](CCCCN)NC(=O)[C@H](CCCCN)NC(=O)[C@H](CCCCN)NC(=O)[C@H](CC(N)=O)NC(=O)[C@H](C)NC(=O)[C@H](CC(=O)O)NC(=O)[C@@H](N)C(C)C)[C@@H](C)O)C(=O)N[C@@H](CC(C)C)C(=O)N[C@@H](CCCCN)C(=O)N[C@@H](CCCCN)C(=O)N[C@@H](CC(C)C)C(=O)N[C@@H](CCC(N)=O)C(=O)N[C@@H](Cc1ccc(O)cc1)C(=O)O`, the Kd in experiment [1] worked out at 510 nM. Moreover, the Activity in the experiment listed under Homo sapiens [2] is 25%; in the experiment filed under Homo sapiens [3], 87%; in the experiment filed under Homo sapiens [4] it was greater than 2%; in the experiment filed under Homo sapiens [6], 50%. The outcome in the experiment filed under Homo sapiens [8] and in the experiment filed under Homo sapiens [12] was Active. Further, in the experiment with Plasmodium falciparum [5], the inhibition at 200 µM turned out to be 11%. For the same compound, in the experiment on Plasmodium falciparum [7], the inhibition at 100 µM worked out at 37%.

Regarding `CCN(CC)CCCC(C)Nc1ccnc2cc(Cl)ccc12` (centres undefined) [CHLOROQUINE], in the experiment with Plasmodium falciparum [13], the Activity is 68%.

Turning to `O=C(O)CN(CCOCCOCCN(CC(=O)O)CC(=O)O)CC(=O)O` [EGTAZIC ACID], the Activity in the experiment with Plasmodium falciparum [14] amounted to 81%.

Regarding H-ASLKETMNKIDTIEKKIEEFY-OH, the Kd in experiment [1] came to 1200 nM. Also, the Activity in the experiment listed under Homo sapiens [2] is 12%; in the experiment filed under Homo sapiens [3], 33%; in the experiment filed under Homo sapiens [4], greater than 2%; in the experiment filed under Homo sapiens [6], 87%. Moreover, the result in the experiment listed under Homo sapiens [8] and in the experiment listed under Homo sapiens [12] was Active. Besides, in the experiment with Plasmodium falciparum [5], the inhibition at 200 µM was 8%. Besides, the inhibition at 100 µM in the experiment on Plasmodium falciparum [7] turned out to be 40%.

Take H-DNNKECLIDPLDVQKNLLNEY-OH: the Kd in experiment [1] was 800 nM. The Activity in the experiment listed under Homo sapiens [2] was 13%; in the experiment listed under Homo sapiens [3], 59%; in the experiment filed under Homo sapiens [4], greater than 2%; in the experiment listed under Homo sapiens [6], 105%. Besides, the outcome in the experiment filed under Homo sapiens [8] and in the experiment filed under Homo sapiens [12] was Active. In the experiment with Plasmodium falciparum [5], the inhibition at 200 µM came out at 4%. Further, the inhibition at 100 µM with Plasmodium falciparum [7] came out at 36%.

For the compound H-FVLAPDEMVYLFYHGNEKKN-OH, the Kd in [1] is 850 nM. Moreover, the Activity in the experiment listed under Homo sapiens [2] was 5%; in the experiment listed under Homo sapiens [3], 116%; in the experiment listed under Homo sapiens [4], greater than 2%; in the experiment listed under Homo sapiens [6], 31%. The inhibition at 200 µM in the experiment with Plasmodium falciparum [5] was determined as 9%. Further, the inhibition at 100 µM in the experiment with Plasmodium falciparum [7] amounted to 49%.

Consider H-NYRRRKRITELRKILVEKLR-OH, for which the Kd in experiment [1] turned out to be 1700 nM. The Activity was 68% in the experiment filed under Homo sapiens [2], 7% in the experiment filed under Homo sapiens [3], greater than 2% in the experiment filed under Homo sapiens [4] and 43% in the experiment listed under Homo sapiens [6]. Besides, the result in the experiment filed under Homo sapiens [8] and in the experiment filed under Homo sapiens [12] was Active. The inhibition at 200 µM in the experiment on Plasmodium falciparum [5] worked out at 15%. The inhibition at 100 µM in the experiment on Plasmodium falciparum [7] stood at 47%.

In the case of H-RLKENKDYDVVSSIIQHLDN-OH, the Kd in experiment [1] turned out to be 730 nM. The Activity in the experiment listed under Homo sapiens [2] is 55%; in the experiment filed under Homo sapiens [3], 94%; in the experiment filed under Homo sapiens [4], greater than 2%; in the experiment filed under Homo sapiens [6] it was 18%. For the same compound, the result in the experiment filed under Homo sapiens [8] and in the experiment filed under Homo sapiens [12] was Active. Moreover, in the experiment with Plasmodium falciparum [5], the inhibition at 200 µM is 7%. Besides, the inhibition at 100 µM with Plasmodium falciparum [7] came out at 42%.

On to H-YFFEYELRKKTQSFRNKNSI-OH, for which, in [1], the Kd was determined as 900 nM. Besides, the Activity in the experiment listed under Homo sapiens [2] was 17%; in the experiment listed under Homo sapiens [3], 31%; in the experiment filed under Homo sapiens [4], greater than 2%; in the experiment listed under Homo sapiens [6], 83%. For the same compound, the outcome in the experiment filed under Homo sapiens [8] and in the experiment listed under Homo sapiens [12] was Active. In addition, the inhibition at 200 µM in the experiment with Plasmodium falciparum [5] is 10%. Besides, the inhibition at 100 µM with Plasmodium falciparum [7] worked out at 40%.

By Kd is commonly meant the equilibrium constant for the complex coming apart. The inhibition is the change of the read-out against control, counted positive when it falls.
